Assay results: patent US8795734B2, “Hydrophobic nanotubes and nanoparticles as transporters for the delivery of drugs into cells” (The Board of Trustees of the Leland Stanford Junior …, priority 2005, dated 2014)

What was measured:
myc = test: Western blot of myc after c-myc siRNA delivery in 4188 cells; assay type: cell-based
Experimental: Typical incubations were carried out by incubating 4188 cells with the NT conjugates for periods ranging from 12-14 h at 37° C. and 5% CO2 atmosphere. In addition to our positive incubation with our disulfide containing conjugate, SWNT-SS-siRNAmyc (typical [NT} ≈20 nM and [siRNA] ≈500 nM in incubation), control incubations were also carried out with DOX at a concentration 2 ng/mL, commercially available transfecting agent lipofectamine-myc complex and finally with a mixture of SWNT suspension and myc siRNA solution.
The proliferation of the cells was also examined by the use of a colorimetric MTS-based assay. […] In order to verify that the decrease in cell viability and proliferation was in fact a result of the knockdown of myc in the lymphoma cells, western blots were performed on the respective cellysates. The myc band was absent for the SWNT-SS-siRNAmyc and DOX treated cell.

4188 cells = test: Cell density, cell death and proliferation of lymphoma cells after c-myc siRNA delivery; assay type: cell-based, mice; conditions: approximately 24 h treatment, light microscopy
Experimental: These conjugates were used to treat T-cell lymphoma cells, 4188 cells, which were derived from mice overexpressing human myc. Control experiments were also performed where the 4188 cells were exposed to a mixture of SWNT and siRNAmyc (no covalent linkage), to lipofectamine-siRNAmyc complex or to the antibiotic doxicycline (DOX). The 4188 cells used in this experiment had been previously engineered to be tet-regulatable such that the myc gene can be turned off by treatment with DOX.
The 4188 cells are non-adherent cells, typically cultured in RPMI 1640 medium supplemented with fetal bovine serum, penicillin/streptomycin and betamercaptoethanol. The cells were engineered to have tet-regulatable MYC, which can be regulated by the antibiotic doxicycline (DOX). 4188 cells are further described at Jain, M. et al. Sustained loss of a neoplastic phenotype by brief inactivation of MYC. Science 297, 102-104 (2002). […]
The cell proliferation was determined by using the CellTiterA96 assay (Promega). […]
Cell death was monitored in the cells by cell cytometry. […]

## C[C@H]1c2cccc(O)c2C(O)=C2C(=O)[C@]3(O)C(O)=C(C(N)=O)C(=O)[C@@H](N(C)C)[C@@H]3[C@@H](O)[C@@H]21 [DOX, doxicycline]
myc
  myc band in western blot: absent
4188 cells
  cell density: some reduction in the cell density
